From PubChem BioAssay (NCI)
Several values for one entry are separate records, joined by “and”; a condition that tells them apart may be missing. Equal values may be shown once.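 Protocol summary: plate cells (96-well), add compound at 5 concentrations, incubate 48 h, interpolate endpoints linearly. Here, GI50 denotes the concentration required for 50% inhibition of growth. TGI: concentration producing complete growth inhibition.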

Legend:
Assay in all cases: NCI anticancer screen, dose series, 48 h
[1] = test system: ACHN renal
[2] = test system: HCT-15 colon
[3] = test system: NCI-H522 lung
[4] = test system: SN12C renal
[5] = test system: OVCAR-8 ovarian
[6] = test system: RPMI-8226 leukemia
[7] = test system: OVCAR-3 ovarian
[8] = test system: MALME-3M melanoma
[9] = test system: HT29 colon
[10] = test system: SR leukemia

SMILES	TGI [1] [µM]	TGI [2] [µM]	TGI [3]	TGI [4] [µM]	TGI [5]	TGI [6]	TGI [7] [µM]	TGI [8]	TGI [9]	GI50 [1] [µM]	GI50 [2] [µM]	GI50 [3]	GI50 [4] [µM]	GI50 [5] [µM]	GI50 [6]	GI50 [7] [µM]	GI50 [8] [µM]	GI50 [9]	TGI [10] [µM]	GI50 [10] [µM]
CC(C)(C)OP(=O)(OC(C)(C)C)C(O)c1ccc(/C=C(\C#N)C(N)=O)cc1 (centres undefined)	> 100	> 100	> 100 µM	> 100	> 100 µM	> 100 µM	> 100	> 100 µM	> 100 µM											
S=c1o[nH]c(-c2ccccc2)c1C=Nc1ccccc1	> 100	> 100	> 100 µM	> 100	> 100 µM	> 100 µM		> 100 µM	> 100 µM											
Cc1c(Cl)c(=O)oc2cc(OC/C=C3\CCC(=O)O3)ccc12	17.9	30	24.2 µM	41.4	47.2 µM	42.6 µM	33.1	32.2 µM	43.3 µM	4.22	15.3	11 µM	16.8	20	7.63 µM	14.7	12.9	17.2 µM		
COC(=O)c1cccc2c3ccccc3c3ccccc3c12	> 100	> 100	80.9 µM	> 100	58.2 µM		56	> 100 µM	83 µM										87.7	
O=C(O)c1cc2ccccc2c2c3c(ccc12)OCO3	> 1000	> 1000		> 1000	717 µM	738 µM	468	361 µM	791 µM	221	245		174	186	139 µM	183	140	281 µM	507	136
CC1=CC(C)(c2c[nH]c3ccccc23)CC(C)(C)c2c1[nH]c1ccccc21 (centres undefined)	44.5			28.5	29.8 µM	38.9 µM	28.6	35 µM	28.6 µM										32	
CC1(C)CCCC2(C)C3C(O)CC2(C)C(O)C31 (centres undefined)	> 100	> 100	> 100 µM	> 100	> 100 µM		> 100	> 100 µM	> 100 µM											
[N-]=[N+]=NCCCn1c2c(c3ccc([N+](=O)[O-])cc3c1=O)C(=O)c1cc3c(cc1-2)OCO3	0.459	> 100	0.844 µM	0.95	16.6 µM		2.87		> 100 µM	< 0.0161	1.42	0.109 µM	< 0.0106	< 0.0446					< 0.01	< 0.01
Cc1ccc(S(=O)(=O)N/N=C(\c2nc3ccc([N+](=O)[O-])cc3[nH]c2=O)C(O)c2ccc([N+](=O)[O-])cc2)cc1 (centres undefined)	> 100	> 100	> 100 µM	> 100	> 100 µM	> 100 µM	> 100	> 100 µM												
Nc1ccc(-c2cc(C(=O)Nc3nccs3)[nH]c(=S)n2)cc1	> 100	> 100	> 100 µM	> 100	> 100 µM	> 100 µM	> 100	> 100 µM	> 100 µM											
O=C1C(=C2CCCC2)CCC1CN1CCCCC1 (centres undefined)		31.2	3.45 µM	30.6	43.4 µM		30.6	30.5 µM	42.1 µM										47.1	
O=C1CC(c2c(-c3ccccc3)[nH]c3ccccc23)C(=O)N1c1ccccc1 (centres undefined)	> 100	> 100			> 100 µM	> 100 µM	> 100	> 100 µM	> 100 µM											
Nc1nonc1-c1nc2ccccc2n1Cc1ccc(F)cc1	> 100	> 100	> 100 µM		> 100 µM		> 100	> 100 µM	> 100 µM	16	3.6	4.42 µM		> 100		5.8	5.09	3.55 µM	> 100	4.89
C=CC(COC(=O)C(C)(C)OC(C)=O)c1ccc(OC(=O)C(C)C)c(OC)c1 (centres undefined)	8.77	4.88	6.38 µM	> 37	> 89.3 µM	> 100 µM	28.9	8.78 µM	> 36.1 µM											
NCCCOc1cc2ccccc2cc1C(=O)Nc1ccc(Cl)cc1OC(=O)c1cc2ccccc2cc1OCCCN	0.972	1.15	0.639 µM	2.23			1.43			0.373	0.468	0.235 µM	0.742			0.612		0.266 µM	1.48	0.257
CNC(=O)c1cc(Oc2cccc3nc(NC(=O)Nc4cc(C(F)(F)F)cc(C(F)(F)F)c4)ccc23)ccn1	16.4	> 100	35.4 µM	> 100	26.8 µM		21.3	12.9 µM	> 100 µM	3.8	18.1	6.65 µM	5.27	5.09		4.07	2.62	3.51 µM	> 100	13
Cc1ccc(S(=O)(=O)NC(=O)NCCc2ccccc2)cc1	> 100		> 100 µM	> 100	> 100 µM	> 100 µM	> 100	> 100 µM												
C[C@H]1C/C=C/[C@H]2[C@@H]3O[C@]3(C)[C@@H](C)[C@H]3[C@H](Cc4ccccc4)NC(=O)[C@]32OC(=O)O/C=C/[C@@](C)(O)C1=O		56.6	4.24 µM and 12.3 µM and 39.8 µM		89.7 µM and 125 µM and > 250 µM	76.2 µM and 44.9 µM and 32.2 µM		2.91 µM and 3.5 µM and 0.877 µM	99.2 µM and 125 µM and > 250 µM			0.0125 µM and 0.025 µM	< 0.025	15	0.235 µM and 0.0493 µM	0.025	0.0212	0.0465 µM and 0.025 µM		
C[N+](C)(C)CC1CCC(C[N+](C)(C)C)C1=O (centres undefined)	3.49	4.18		8.18	38 µM	27.2 µM	5.32	2.28 µM	3.4 µM					14.3						
CCOC(=O)C1C=C2O[C@@H]3OC4(CCCCC4)O[C@@H]3C2C2C(=O)CCC(=O)[C@@]12C(=O)OC (some centres undefined)	> 100	> 100	> 100 µM	> 100	> 100 µM	> 100 µM	> 100	> 100 µM												
Cc1cccc(C)c1NC(=O)CCC/C(CC(=O)c1ccc(F)cc1)=N\NC(=O)C(=O)NN	> 100	> 100		> 100	> 100 µM	> 100 µM	> 100	> 100 µM	> 100 µM											
O=[P+](O)c1ccccn1	> 100	> 100	> 100 µM	> 100	> 100 µM	> 100 µM	> 100	> 100 µM	> 100 µM											
Cc1coc2c1C(=O)C(=O)c1ccccc1-2		3.42		2.12	1.25 µM		3.29	2.96 µM	3.53 µM										4.78	
NC(=S)N=Nc1c(O)[nH]c2c(Cl)cc(Cl)cc12	> 100	> 100		52.8	40.8 µM		34.8	35.2 µM	42 µM										70.4	
O=S(=O)(NCCNc1nccc(-c2c(-c3ccc(F)c(O)c3)nc3sccn23)n1)c1ccc(Cl)cc1	> 50	> 50	18.6 µM	> 50	36.7 µM		14.9	22.7 µM		1.4	1.67	2.08 µM	1.54	2.18		2.56	1.69		> 50	1.87
Cn1c(=O)nc2n(-c3ccc(Cl)cc3)c(-c3ccccc3)c(-c3ccccc3)nc-2c1=O	49.8	> 100	> 100 µM	> 100	> 100 µM	71.1 µM	82.1	> 100 µM	> 100 µM											
CC(C)(C)c1cc(C(=O)Nc2ccc(C(=O)NCCN)cc2)cc(C(C)(C)C)c1	18.7	19.4	7.63 µM	3.9	10.9 µM		4.97	3.13 µM	5.19 µM	4.45	4.75	2.41 µM	1.98	3.39		2.18	1.43	2 µM	4.82	1.47
Cc1cc(N(CCC#N)CCC#N)ccc1N=Nc1cc(Cl)ccc1Cl	25.4	6.58	3.41 µM	27.1		34.7 µM	18.2	17.9 µM	13.1 µM											
N#CC1=C(N)NC(=S)NC1c1ccc(-c2ccc(-c3nc4ccccc4o3)cc2)s1 (centres undefined)	12.9	> 50	20.8 µM	28.4	22.4 µM	> 50 µM	37.2			6.54	12.3	9.65 µM	10.6	10.1	16 µM	10.7				
